According to paper PMC5816626, “A multitarget approach to drug discovery inhibiting Mycobacterium tuberculosis PyrG and PanK” (Scientific Reports, 2018):
Values after ≈ are worked out from the molar mass of the structure shown.

How the values were obtained:
Assay type in all cases: cell-based, Mycobacterium tuberculosis
[1] = system: M. tuberculosis 82.21 mutant (ethA Δ1283–4, coaA A620G (Q207R))
[2] = system: M. tuberculosis 88.1 mutant (coaA A620G (Q207R))
[3] = system: M. tuberculosis 88.2 mutant (coaA A620G (Q207R))
[4] = system: M. tuberculosis 88.3, 88.4, 88.5, 88.9, 88.11, 88.12 mutants (coaA A620G (Q207R))
[5] = system: M. tuberculosis 81.10 mutant (ethA Δ1109–1137)

SMILES | MIC [1] [µg/mL] | MIC [2] [µg/mL] | MIC [3] [µg/mL] | MIC [4] [µg/mL] | MIC [5] [µg/mL]
CCc1cc(C(N)=S)ccn1 [Ethionamide, reference compound] | 10 (≈ 60.2 µM) | 1 (≈ 6.02 µM) | 1 (≈ 6.02 µM) | 1 (≈ 6.02 µM) | 10 (≈ 60.2 µM)
O=C(CCc1ccccc1)NC(=S)Nc1ccc(N2CCCCC2)cc1 [compound 7904688, 3-phenyl-N-[(4-piperidin-1-ylphenyl)carbamothioyl]propanamide] | >40 | 10 (≈ 27.2 µM) | 10 (≈ 27.2 µM) | 10 (≈ 27.2 µM) | >40
Cc1ccc(C(=O)Nc2ccc([N+](=O)[O-])cc2)s1 [compound 7947882, 5-methyl-N-(4-nitrophenyl)thiophene-2-carboxamide] | >40 | 2.5 (≈ 9.53 µM) | 2.5 (≈ 9.53 µM) | 2.5 (≈ 9.53 µM) | >40
CC1=CC=C(C(=O)Nc2ccc([N+](=O)[O-])cc2)S1(=O)=O [compound 11426026] | 2.5 (≈ 8.5 µM) | 2.5 (≈ 8.5 µM) | 2.5 (≈ 8.5 µM) | 2.5 (≈ 8.5 µM) | 1 (≈ 3.4 µM)
